Among the data in patent US8716281B2, “Pyrimidine compounds that inhibit anaplastic lymphoma kinase” (Amgen Inc., priority 2010, dated 2014) are IC50 values, retold here.

A value given as a limit tells only on which side of the number the result lay.

The target in one assay is T1, wild-type human ALK cytoplasmic domain (amino acids 1058-1620) (Homo sapiens, UniProt Q9UM73).
T1 construct: The cytoplasmic domain (amino acids 1058-1620) of wild-type human ALK; GST (N); made in house; host or cells: SF9 insect cells
T1 sequence (Q9UM73 1058-1620): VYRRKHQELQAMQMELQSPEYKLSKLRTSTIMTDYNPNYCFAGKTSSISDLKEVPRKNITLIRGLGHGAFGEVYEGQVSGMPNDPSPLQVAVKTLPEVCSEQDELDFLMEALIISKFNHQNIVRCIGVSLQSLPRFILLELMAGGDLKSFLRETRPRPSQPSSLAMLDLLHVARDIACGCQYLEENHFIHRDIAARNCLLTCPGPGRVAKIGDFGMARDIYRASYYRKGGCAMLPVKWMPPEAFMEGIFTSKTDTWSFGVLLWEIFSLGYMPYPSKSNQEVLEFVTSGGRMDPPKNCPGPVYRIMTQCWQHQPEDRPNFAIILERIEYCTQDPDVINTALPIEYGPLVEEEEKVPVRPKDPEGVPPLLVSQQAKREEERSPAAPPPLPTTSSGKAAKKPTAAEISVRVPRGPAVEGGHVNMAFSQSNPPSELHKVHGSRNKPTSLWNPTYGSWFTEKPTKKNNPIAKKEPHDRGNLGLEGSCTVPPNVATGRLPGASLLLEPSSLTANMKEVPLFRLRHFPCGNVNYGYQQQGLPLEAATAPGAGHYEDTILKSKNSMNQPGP
Description: ALK Inhibition in Enzyme Assay (Lance TR-FRET). Format: biochemical.
Conditions: not given
In short, it runs like this: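 TR-FRET read-out (Eu-W1024 PT66 anti-phosphotyrosine plus streptavidin-allophycocyanin, 320 nm excitation) quantified biotinylated peptide phosphorylation by the purified kinase. Reaction ran 90 minutes at room temperature before quenching with 20 mM EDTA in Tris pH 7.5 buffer with NaCl, BSA and Tween-20.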
A general note: TR-FRET usually uses a lanthanide donor and a delayed reading to cut background.
Consider `COc1cc(Nc2nccc(N3CCC[C@H](C(=O)NCCCc4ccccc4)C3)n2)cc(OC)c1OC` [Example 126, (S)-N-(3-phenylpropyl)-1-(2-((3,4,5-trimethoxyphenyl)amino)-4-pyrimidinyl)-3-piperidinecarboxamide], for which the IC50 (usually the concentration that inhibits the measured activity by half) is 5000 to 10000 nM.

Still in this assay, the particulars now being: 2 nM enzyme, ATP at 40 μM (Km apparent), 90 minutes, mean of three replicates; read-out: ALK IC50.
Turning to `COc1cc(Nc2nccc(N3CCC[C@H](C(=O)NCc4cccc(Br)c4)C3)n2)cc(OC)c1OC` [Example 113, (S)-N-(3-bromobenzyl)-1-(2-((3,4,5-trimethoxyphenyl)amino)-4-pyrimidinyl)-3-piperidinecarboxamide], the IC50 is < 50 nM. Still for that read-out and setting: then `COc1cc(Nc2nccc(N3CCC[C@H](C(=O)NCc4cccc(Oc5ccc(C)cc5)c4)C3)n2)cc(OC)c1OC` [Example 114, (S)-N-(3-(4-methylphenoxy)benzyl)-1-(2-((3,4,5-trimethoxyphenyl)amino)-4-pyrimidinyl)-3-piperidinecarboxamide], with 1000 to 5000 nM; and `COc1cc(Nc2nccc(N3CCC[C@H](C(=O)NCc4ccc(C#N)cc4)C3)n2)cc(OC)c1OC` [Example 115, (S)-N-(4-cyanobenzyl)-1-(2-((3,4,5-trimethoxyphenyl)amino)-4-pyrimidinyl)-3-piperidinecarboxamide], with 100 to 1000 nM. The same measure, in the same setting: as for `COc1cc(Nc2nccc(N3CCC[C@H](C(=O)NCc4ccc(Oc5ccccc5)cc4)C3)n2)cc(OC)c1OC` [Example 116, (S)-N-(4-phenoxybenzyl)-1-(2-((3,4,5-trimethoxyphenyl)amino)-4-pyrimidinyl)-3-piperidinecarboxamide], the figure is 50 to 100 nM; as for `COc1cc(Nc2nccc(N3CCC[C@H](C(=O)NCc4ccc(C(C)C)cc4)C3)n2)cc(OC)c1OC` [Example 117, (S)-N-(4-(1-methylethyl)benzyl)-1-(2-((3,4,5-trimethoxyphenyl)amino)-4-pyrimidinyl)-3-piperidinecarboxamide], < 50 nM. On the same count and under the same terms, then `COc1cc(Nc2nccc(N3CCC[C@H](C(=O)NCc4ccc(Oc5ccc(Cl)cc5)cc4)C3)n2)cc(OC)c1OC` [Example 118, (S)-N-(4-(4-chlorophenoxy)benzyl)-1-(2-((3,4,5-trimethoxyphenyl)amino)-4-pyrimidinyl)-3-piperidinecarboxamide], with 100 to 1000 nM; and `COc1cc(Nc2nccc(N3CCC[C@H](C(=O)NCc4ccc(Oc5ccc(C)cc5)cc4)C3)n2)cc(OC)c1OC` [Example 119, (S)-N-(4-(4-methylphenoxy)benzyl)-1-(2-((3,4,5-trimethoxyphenyl)amino)-4-pyrimidinyl)-3-piperidinecarboxamide], with 100 to 1000 nM; and `COc1cc(Nc2nccc(N3CCC[C@H](C(=O)NCc4ccc(-c5cc(Cl)cc(Cl)c5)cc4)C3)n2)cc(OC)c1OC` [Example 120, (S)-N-((3′,5′-dichloro-4-biphenylyl)methyl)-1-(2-((3,4,5-trimethoxyphenyl)amino)-4-pyrimidinyl)-3-piperidinecarboxamide], with 1000 to 5000 nM. For the molecule `COc1cc(Nc2nccc(N3CCC[C@H](C(=O)NCc4ccc(-c5ccccc5Cl)cc4)C3)n2)cc(OC)c1OC` [Example 121, (S)-N-((2′-chloro-4-biphenylyl)methyl)-1-(2-((3,4,5-trimethoxyphenyl)amino)-4-pyrimidinyl)-3-piperidinecarboxamide], the half-inhibitory concentration (IC50) was 100 to 1000 nM. The same measure, in the same setting: as for `COc1cc(Nc2nccc(N3CCC[C@H](C(=O)NCc4ccc(S(C)(=O)=O)cc4)C3)n2)cc(OC)c1OC` [Example 122, (S)-N-(4-(methylsulfonyl)benzyl)-1-(2-((3,4,5-trimethoxyphenyl)amino)-4-pyrimidinyl)-3-piperidinecarboxamide], the figure is 1000 to 5000 nM; as for `COc1cc(Nc2nccc(N3CCC[C@H](C(=O)NCc4ccc(-c5ccc(F)cc5)cc4)C3)n2)cc(OC)c1OC` [Example 123, (S)-N-((4′-fluoro-4-biphenylyl)methyl)-1-(2-((3,4,5-trimethoxyphenyl)amino)-4-pyrimidinyl)-3-piperidinecarboxamide], 100 to 1000 nM; as for `COc1cc(Nc2nccc(N3CCC[C@H](C(=O)NCc4ccc(NC(C)=O)cc4)C3)n2)cc(OC)c1OC` [Example 124, (S)-N-(4-(acetylamino)benzyl)-1-(2-((3,4,5-trimethoxyphenyl)amino)-4-pyrimidinyl)-3-piperidinecarboxamide], 1000 to 5000 nM. Consider `COc1cc(Nc2nccc(N3CCC[C@H](C(=O)NC(C#N)c4ccc(OC(F)(F)F)cc4)C3)n2)cc(OC)c1OC` (stereo partly drawn) [Example 127, (S)-N-(cyano(4-(trifluoromethoxy)phenyl)methyl)-1-(2-(3,4,5-trimethoxyphenylamino)pyrimidin-4-yl)piperidine-3-carboxamide], for which the IC50 was < 50 nM. `Cc1ccc(CNC(=O)[C@H]2CCCN(c3ccnc(Nc4cnc5ccccc5c4)n3)C2)cc1` [Example 130, (3S)-N-(4-methylbenzyl)-1-(2-(3-quinolinylamino)-4-pyrimidinyl)-3-piperidinecarboxamide]: the 50% inhibitory concentration (IC50) lay within 1000 to 5000 nM. For `Cc1ccc(CNC(=O)[C@H]2CCCN(c3ccnc(Nc4ccc5[nH]ccc5c4)n3)C2)cc1` [Example 131, (3S)-1-(2-(1H-indol-5-ylamino)-4-pyrimidinyl)-N-(4-methylbenzyl)-3-piperidinecarboxamide], the concentration for half-maximal inhibition (IC50) is 1000 to 5000 nM. In the case of `COc1ccccc1Nc1nccc(N2CCC[C@H](C(=O)NCc3ccc(C)cc3)C2)n1` [Example 133, (3S)-1-(2-((2-methoxyphenyl)amino)-4-pyrimidinyl)-N-(4-methylbenzyl)-3-piperidinecarboxamide], the half-inhibitory concentration (IC50) was in the range of 1000 to 5000 nM. On the same count and under the same terms, then `Cc1ccc(CNC(=O)[C@H]2CCCN(c3ccnc(Nc4cccc(C(F)(F)F)c4)n3)C2)cc1` [Example 137, (3S)-N-(4-methylbenzyl)-1-(2-((3-(trifluoromethyl)phenyl)amino)-4-pyrimidinyl)-3-piperidinecarboxamide], with 1000 to 5000 nM.

For the molecule `COc1ccc(NC(C)=O)cc1Nc1nccc(N2CCC[C@H](C(=O)NCc3ccc(C)cc3)C2)n1` [Example 138, (3S)-1-(2-((5-(acetylamino)-2-methoxyphenyl)amino)-4-pyrimidinyl)-N-(4-methylbenzyl)-3-piperidinecarboxamide], the IC50 lay in the range of 1000 to 5000 nM. Same read-out and setting: then `Cc1ccc(CNC(=O)[C@H]2CCCN(c3ccnc(Nc4ccc(N5CCOCC5)cc4)n3)C2)cc1` [Example 139, (3S)-N-(4-methylbenzyl)-1-(2-((4-(4-morpholinyl)phenyl)ami-no)-4-pyrimidinyl)-3-piperidinecarboxamide], with 1000 to 5000 nM. On the same count and under the same terms, as for `Cc1ccc(CNC(=O)[C@H]2CCCN(c3ccnc(Nc4cccc5c4CNC5=O)n3)C2)cc1` [Example 141, (3S)-N-(4-methylbenzyl)-1-(2-((1-oxo-2,3-dihydro-1H-isoindol-4-yl)amino)-4-pyrimidinyl)-3-piperidinecarboxamide], the figure is 100 to 1000 nM; as for `CC(=O)N1CC(C)(C)c2ccc(Nc3nccc(N4CCC[C@H](C(=O)NCc5ccc(C)cc5)C4)n3)cc21` [Example 142, (3S)-1-(2-((1-acetyl-3,3-dimethyl-2,3-dihydro-1H-indol-6-yl)amino)-4-pyrimidinyl)-N-(4-methylbenzyl)-3-piperidinecarboxamide], 1000 to 5000 nM. On the same count and under the same terms, as for `Cc1ccc(CNC(=O)[C@H]2CCCN(c3ccnc(Nc4cccc(Cn5nccn5)c4)n3)C2)cc1` [Example 143, (3S)-N-(4-methylbenzyl)-1-(2-((3-(2H-1,2,3-triazol-2-ylmethyl)phenyl)amino)-4-pyrimidinyl)-3-piperidinecarboxamide], the figure is 100 to 1000 nM; as for `Cc1ccc(CNC(=O)[C@H]2CCCN(c3ccnc(Nc4cc(C5CCN(C(=O)OC(C)(C)C)CC5)[nH]n4)n3)C2)cc1` [Example 144, tert-butyl 4-(3-((4-((3S)-3-((4-methylbenzyl)carbamoyl)-1-piperidinyl)-2-pyrimidinyl)amino)-1H-pyrazol-5-yl)-1-piperidinecarboxylate], 1000 to 5000 nM. As for `Cc1ccc(CNC(=O)[C@H]2CCCN(c3ccnc(Nc4cc(-c5ccc(C)cc5)[nH]n4)n3)C2)cc1` [Example 145, (3S)-N-(4-methylbenzyl)-1-(2-((5-(4-methylphenyl)-1H-pyrazol-3-yl)amino)-4-pyrimidinyl)-3-piperidinecarboxamide], the concentration for half-maximal inhibition (IC50) lay in the range of 5000 to 10000 nM.

Consider `COc1cc(Nc2nccc(N3CCC[C@H](C(=O)NCc4ccc(C)cc4)C3)n2)cc2c1OCCO2` [Example 146, (3S)-1-(2-((8-methoxy-2,3-dihydro-1,4-benzodioxin-6-yl)amino)-4-pyrimidinyl)-N-(4-methylbenzyl)-3-piperidinecarboxamide], for which the IC50 fell in the range of 100 to 1000 nM. Still for that read-out and setting: then `Cc1ccc(CNC(=O)[C@H]2CCCN(c3ccnc(Nc4ccc(=O)n(C)c4)n3)C2)cc1` [Example 147, (3S)-N-(4-methylbenzyl)-1-(2-((1-methyl-6-oxo-1,6-dihydro-3-pyridinyl)amino)-4-pyrimidinyl)-3-piperidinecarboxamide], with 5000 to 10000 nM; and `CCOc1cccc(Nc2nccc(N3CCC[C@H](C(=O)NCc4ccc(C)cc4)C3)n2)c1` [Example 148, (3S)-1-(2-((3-ethoxyphenyl)amino)-4-pyrimidinyl)-N-(4-methylbenzyl)-3-piperidinecarboxamide], with 100 to 1000 nM; and `Cc1ccc(CNC(=O)[C@H]2CCCN(c3ccnc(Nc4cccc(Oc5ccccc5)c4)n3)C2)cc1` [Example 149, (3S)-N-(4-methylbenzyl)-1-(2-((3-phenoxyphenyl)amino)-4-pyrimidinyl)-3-piperidinecarboxamide], with 100 to 1000 nM. On the same count and under the same terms, as for `Cc1ccc(CNC(=O)[C@H]2CCCN(c3ccnc(Nc4cccc(C(=O)c5ccccc5)c4)n3)C2)cc1` [Example 150, (3S)-N-(4-methylbenzyl)-1-(2-((3-(phenylcarbonyl)phenyl)amino)-4-pyrimidinyl)-3-piperidinecarboxamide], the figure is 100 to 1000 nM.
